The structures appear in SMILES notation. Calls of active or inactive are those of the source.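 Rule for the calls: active = compounds giving half or more protection of infected cells from virus-caused growth loss, again on retest; inactive = the rest.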 Where a SMILES comes first, the peptide text is derived from it. The star is where a group is joined. Boc = CC(C)(C)OC(=O)*

For this test, the system named is CEM cells HIV-1 protection, formazan growth assay. The test is described as follows: NCI AIDS Antiviral Assay. To be noted: for IC50: measured here: growth of uninfected CEM cells. The protocol:
The ability of compounds to protect human CEM cells from HIV-1 infection is measured as a screen for new compounds capable of inhibiting the HIV virus. Five concentrations of drug were tested on uninfected and infected cells and cell growth was measured using a soluble formazan assay. […] Compounds that provided at least 50% protection were retested. Compounds that provided at least 50% protection on retest were listed as moderately active. Compounds that reproducibly provided 100% protection were listed as confirmed active. […] Note that the inability to provide protection could be due to toxicity.

In general, EC50 refers to the midpoint of the concentration-response curve. The term IC50 denotes the concentration that gives 50% inhibition. Low readings indicate higher potency, high ones lower potency. With `N#Cc1c(N2CCN(c3ccc([N+](=O)[O-])cc3)CC2)[n+](=O)c2ccc(Cl)cc2n1[O-]`, the EC50 is greater than 20 µM and the IC50 was found to be 0.631 µM.
As to `CCC(C(=O)OC)C1CCN(C)C(=O)C12CO2` (stereo unspecified), the EC50 was greater than 1020 µM and the IC50 is greater than 1020 µM.
Turning to `C=C1C(OC(=O)C(O)C(c2ccccc2)N(C)C)CC(OC(C)=O)[C@]2(C)C1C[C@@H]1CC(=O)C(C)=C([C@@H](OC(C)=O)C2OC(C)=O)C1(C)C` (stereo partly specified), the EC50 is greater than 93.3 µM and the IC50 is greater than 93.3 µM.
With `O=C(O)COc1ccc(C(=O)/C(SS/C(C(=O)c2ccc(OCC(=O)O)c(Cl)c2Cl)=C2\C=C(c3ccc(F)cc3)SS2)=C2/C=C(c3ccc(F)cc3)SS2)c(Cl)c1Cl`, the EC50 was greater than 37.2 µM and the IC50 was greater than 37.2 µM.
As to `C/C(O)=C(\C=N\C(=S)N=Nc1c(O)[nH]c2ccccc12)C(=O)Nc1ccccc1C`, the EC50 is greater than 200 µM and the IC50 was greater than 200 µM.
`CC1CN(C=O)CC(C)N1CCN1C(C)CN(C=O)CC1C` (stereo unspecified): the EC50 is greater than 288 µM and the IC50 is greater than 288 µM.
As to `CC(=O)OCC1OC(n2c3c(cc(C#N)c2=O)CCCCCC3)C(OC(C)=O)C(OC(C)=O)C1OC(C)=O` (stereo unspecified), the EC50 was greater than 200 µM and the IC50 amounted to 170 µM.
Taken in the same sequence, the figures for `O=C1Nc2cc([N+](=O)[O-])ccc2C(=O)N2CCC[C@@H]12` were greater than 200 µM and greater than 200 µM.
Turning to `Cc1ccc(OCCn2cc(Nc3ccccc3)c(=O)n(CCOc3ccc(C)cc3)c2=O)cc1`, the EC50 is greater than 200 µM and the IC50 came to 174 µM.
Taken in the same sequence, the figures for `Cn1c(NNc2ccccc2)cc(=O)[nH]c1=O` were greater than 200 µM and 28.8 µM.
As to `CN(C)CCc1c2c(nc3ccccc13)C(=O)c1cccnc1C2=O`, the outcome was inactive.
Take `C=CC[C@]12C[C@@H](C(=O)OC)N(C(=O)OC)[C@H]1N(S(=O)(=O)c1ccccc1)c1ccccc12`: the EC50 is greater than 200 µM and the IC50 came to 74.1 µM.
The corresponding values for `COc1ccc(C2=C(N)c3cc(OC)ccc3C2=O)cc1` are greater than 200 µM and greater than 200 µM.
Taken in the same sequence, the figures for `Cn1c(=S)[nH]c(N)c(Cc2ccccc2)c1=O` were greater than 200 µM and 64.6 µM.
In the case of `N.N.N.N.O=N[O-].O=N[O-].O=[N+]([O-])[O-].[Co+3]`, the EC50 is greater than 200 µM and the IC50 is greater than 200 µM.
On to `CN(C)c1ccc(-c2nc3c(=O)n(C)c(=O)n(C)c3nc2-c2ccc(N(C)C)cc2)cc1`, for which the EC50 was greater than 200 µM and the IC50 is 126 µM.
Taken in the same sequence, the figures for `CSc1c(C#N)c2n(c3ccccc3[n+]2C)c2ncccc12` were greater than 200 µM and 3.31 µM.
Taken in the same sequence, the figures for `COC(=O)C(=O)CC(=O)CCn1ncc(Cl)c(Cl)c1=O` were greater than 776 µM and 4.07 µM.
The corresponding values for `CC1=CC(=O)/C(=C/n2c(=S)[nH]c3ccccc32)C(=O)O1` are greater than 200 µM and greater than 200 µM.
With `Cc1ccccc1NC(=O)C(=O)C(C(=O)c1ccccc1F)C1OC(=O)c2ccccc21` (stereo unspecified), the EC50 was greater than 302 µM and the IC50 is 51.3 µM.
As for `CCOC(=O)Nn1cnnc1C`, the EC50 is greater than 200 µM and the IC50 is greater than 200 µM.
Turning to `COC(=O)C(C)NC(=O)C(CCSC)NC(=O)C(Cc1ccccc1)NC(=O)OC(C)(C)C` (stereo not drawn) (Boc-Phe-Met-Ala-OMe; configuration not given here), the EC50 is greater than 200 µM.
For `CC1=CC(=O)/C(=C/N2C(=O)CNC2=S)C(=O)O1`, the EC50 was greater than 200 µM and the IC50 is greater than 200 µM.
As to `CN1C(=O)C2(Nc3ccccc3N2)c2ccccc21`, the EC50 was greater than 70.8 µM and the IC50 is greater than 70.8 µM.
For the compound `O=S(=O)(O)c1ccc2c(N=Nc3ccc(S(=O)(=O)O)c4ccccc34)c(O)c(S(=O)(=O)O)cc2c1`, the EC50 was greater than 100 µM, the outcome was inactive and the IC50 was greater than 100 µM.
Turning to `NC(Cc1csc2ccccc12)C(=O)O` (stereo unspecified), the EC50 was greater than 200 µM and the IC50 was 19.5 µM.
Taken in the same sequence, the figures for `Fc1ccc(C(=NCc2ccccc2)N2CCOCC2)cc1` were greater than 200 µM and greater than 200 µM.
`C[C@H]1[C@H]2CC[C@H]3[C@@H]4CC(=O)[C@]56C[C@@H]5CC[C@]6(C)[C@H]4CC[C@]23CN1C`: the EC50 was greater than 91.2 µM and the IC50 was greater than 91.2 µM.
Consider `Cn1ccnc1CCc1c(Cl)cccc1Cl`, for which the EC50 is greater than 851 µM and the IC50 stood at 123 µM.
Taken in the same sequence, the figures for `CC(C)OP(=O)(NC(=S)c1ccccc1)OC(C)C` were greater than 316 µM and 295 µM.
Taken in the same sequence, the figures for `C(=C(c1ccc(OC2CCCCO2)cc1)c1ccc(OC2CCCCO2)cc1)c1ccccc1` (stereo unspecified) were greater than 2 µM and 1.12 µM.
The corresponding values for `COc1cc2c(c(OC)c1OC)-c1oncc1CC2` are 166 µM and 282 µM.
For the compound `CCCCCCOP(OCCCCCC)OCCCCCC`, the result was inactive.
For `CC(C)NC(=O)OCCS(=O)c1c(Cl)c(Cl)nn1C` (stereo unspecified), the EC50 is greater than 200 µM and the IC50 amounted to 33.1 µM.
Taken in the same sequence, the figures for `Cc1nc(C(N)=S)sc1C(=O)C/C(=N/N)C(=O)Nc1cccc(Cl)c1C` were greater than 166 µM and greater than 166 µM.
Taken in the same sequence, the figures for `O=[As]1(c2ccccc2)c2ccccc2Oc2ccccc21` were greater than 288 µM and 141 µM.
With `CCN1C[C@]2(C)CCC(OC)C34[C@@H]5C[C@@H]6C(OC)[C@@H]5[C@@]5(C[C@@H]6OC)OCO[C@]5([C@H]13)[C@@H](OC(C)=O)[C@@H]42` (stereo partly specified), the result was inactive.
`COc1ccc(C2(OC)Oc3ccccc3C(=O)C2(O)O)cc1` (stereo unspecified): the EC50 was greater than 200 µM and the IC50 was 12.6 µM.
In the case of `Cc1ccc(NC(=O)/C(=N\Nc2ccc([N+](=O)[O-])cc2[N+](=O)[O-])C2C(=O)NC(=O)NC2=O)cc1`, the result was inactive.
For `C1=CC2C=CC(C=C1)[PH+]2c1ccccc1.C1=CC2C=CC(C=C1)[PH+]2c1ccccc1.[C-]#[O+].[C-]#[O+].[C-]#[O+].[Fe]` (stereo unspecified), the EC50 was greater than 17.8 µM and the IC50 is greater than 17.8 µM.
Turning to `COc1ccc(-c2cc(-c3ccccc3)[nH]c(=S)c2C#N)cc1`, the EC50 is greater than 200 µM and the IC50 is 67.6 µM.
Turning to `CCOC(=O)C(Cc1c[nH]c2cc([N+](=O)[O-])ccc12)NS(=O)(=O)c1ccc2ccccc2c1` (stereo unspecified), the EC50 is greater than 15.5 µM and the IC50 was greater than 15.5 µM.
For `O=C1OC(c2ccccc2)=N/C1=C\c1ccccc1Cl`, the EC50 was greater than 35.5 µM and the IC50 was greater than 35.5 µM.
On to `CNS(=O)(=O)NNS(=O)(=O)c1ccc(C)cc1`, for which the EC50 was greater than 468 µM and the IC50 came to 145 µM.
In the case of `O=C1CCC(=O)N1CNc1cccc(NCN2C(=O)CCC2=O)c1`, the EC50 was greater than 39.8 µM and the IC50 was greater than 39.8 µM.
With `CC(C)(O)[C@@H]1CC[C@@]2(C)CCCC(O)C2(O)C1` (stereo partly specified), the outcome was inactive.
For `C=CCC1([C@H](C)[C@@H](OC(C)=O)c2cc(OC)c(OC)c(OC)c2)C[C@@H](OC)CCC1=O` (stereo partly specified), the EC50 was greater than 115 µM and the IC50 was 6.03 µM.
The corresponding values for `COc1ccc2c(c1)-c1[nH]c3ccccc3c1CC2` are greater than 200 µM and 12 µM.
Regarding `COc1cc2c(cc1OC)C1(c3ccc(Cl)cc3)ON=C(c3ccccc3)N1CS2` (stereo unspecified), the EC50 was greater than 6.17 µM and the IC50 is greater than 6.17 µM.
`CC(C)(C)C(=O)Cc1cc2c(cc1C(=O)O)S(=O)(=O)NC(C(C)(C)C)=C2`: the EC50 is greater than 479 µM and the IC50 is greater than 479 µM.
Regarding `COC(=O)/C(=N\NC(N)=S)C(C(=O)OC)C(=O)C(=O)Nc1ccc(C)cc1` (stereo unspecified), the EC50 was greater than 66.1 µM and the IC50 is greater than 66.1 µM.
Regarding `NC(N)=NS(=O)(=O)c1ccc(NC(=O)c2cccc3c(=O)c4ccccc4[nH]c23)cc1`, the outcome was inactive.
The same measure, in the same setting: as for `CCOC(=O)C(=O)Nc1nc2ccc(C)cc2s1`, the entry is “inactive”.
Consider `NC1=NN(c2ccc(Br)cc2)C2C=CC=CN12` (stereo unspecified), for which the EC50 was greater than 200 µM and the IC50 turned out to be 151 µM.
The corresponding values for `CCN1CCC(O)(c2ccc(Oc3ccccc3)cc2)C(C(=O)c2ccc(Oc3ccccc3)cc2)C1` (stereo unspecified) are greater than 200 µM and 13.2 µM.
In the case of `O=C1C(Cl)=C(Cl)C(=O)N1c1cccc(C(F)(F)F)c1`, the outcome was inactive.
As for `O=C1C[C@@H](c2ccccc2)O[C@@H](c2ccccc2)C1`, the EC50 was greater than 200 µM and the IC50 came out at 112 µM.
Taken in the same sequence, the figures for `CCCCCCCCCCCCCCCCCCNC(=S)NC=C(C(N)=O)C(N)=O` were greater than 100 µM and greater than 100 µM.
Regarding `Cc1cccc(C(C)(C)C)c1NC(=O)C(=O)Cc1nc2ccccc2s1`, the result was inactive.
As for `CC(NC(=O)C(OC(=O)C(C)NC(=O)OC(C)(C)C)C(C)C)C(=O)OC(C(=O)O)C(C)C` (stereo unspecified), the EC50 is greater than 200 µM and the IC50 is greater than 200 µM.
In the case of `CCN(CC)CCCNC(=O)C1COc2cc(-c3cc(=O)c4ccccc4o3)ccc2O1` (stereo unspecified), the outcome was inactive.
`N#Cc1cccc(/C=N/N=C(\N)NO)c1`: the EC50 is greater than 479 µM and the IC50 is 37.2 µM.
The corresponding values for `O=C1CCC2CCC(=O)N12` are greater than 1780 µM and greater than 1780 µM.
For the compound `Cc1cc(OCC(O)CO)ccc1-c1ccccc1` (stereo unspecified), the EC50 was greater than 977 µM and the IC50 is 295 µM.
Turning to `CC1(C)COC(C2Cc3ccccc3C(O)(c3ccccc3)C2)=N1` (stereo unspecified), the EC50 was greater than 200 µM and the IC50 was greater than 200 µM.
In the case of `FC(F)(F)c1nc2c(ccc3[nH]c4c(-c5ccccc5)nccc4c32)[nH]1`, the EC50 was greater than 28.2 µM and the IC50 was greater than 28.2 µM.
As for `CC(=O)OC12c3ccccc3C(c3ccccc31)C1C(=O)N(N=C(C)C)C(=O)C12` (stereo unspecified), the EC50 is greater than 200 µM and the IC50 is greater than 200 µM.
`COc1ccccc1N=Nc1c(-c2ccccc2)nn(C(=O)CC(=O)Nc2ccccc2Cl)c1-c1ccccc1`: the EC50 was greater than 13.2 µM and the IC50 was greater than 13.2 µM.
